Test results taken from patent US20200369630A1, “HERBICIDALLY ACTIVE 3-PHENYL-5-TRIFLUOROMETHYLISOXAZOLINE-5-CARBOXAMIDES OF CYCLOPENTYLCARBOXYLIC ACIDS AND ESTERS” (Bayer Aktiengesellschaft, priority 2017, published 2020).

Tests used:
Experiment in all cases: Post-emergence herbicidal action
Format in all cases: in vivo
Details in all cases: Table C2, post-emergence, dosage 320 (0.32 kg of active substance per hectare), rated visually after about 3 weeks
[1] = system: ECHCG: Echinochloa crus-galli
Experimental: (§1) [table] Seeds of monocotyledonous and dicotyledonous weeds and crop plants are placed in sandy loam in plastic or wood-fiber pots, covered with soil and cultivated in a greenhouse under controlled growth conditions. 2 to 3 weeks after sowing, the test plants are treated at the one-leaf stage. The compounds of the invention, formulated in the form of wettable powders (WP) or as emulsion concentrates (EC), are then sprayed onto the green parts of the plants as aqueous suspension or emulsion with addition of 0.5% additive at a water application rate of […] (converted). After the test plants had been kept in the greenhouse under optimum growth conditions for about 3 weeks, the activity of the preparations is rated visually in comparison to untreated controls. For example, 100% activity=the plants have died, 0% activity=like control plants.

AVEFA: Avena fatua = system: AVEFA: Avena fatua
Experimental: as §1

VERPE: Veronica persica = system: VERPE: Veronica persica
Experimental: as §1

LOLRI: Lolium rigidum = system: LOLRI: Lolium rigidum
Experimental: as §1

[2] = system: AMARE: Amaranthus retroflexus
Experimental: as §1

STEME: Stellaria media = system: STEME: Stellaria media
Experimental: as §1

HORMU: Hordeum murinum = system: HORMU: Hordeum murinum
Experimental: as §1

[3] = system: POLCO: Polygonum convolvulus
Experimental: as §1

[4] = system: ALOMY: Alopecurus myosuroides
Experimental: as §1

Row | SMILES | Herbicidal action against [%] ECHCG [1] [%] | Herbicidal action against [%] AVEFA (AVEFA: Avena fatua) [%] | Herbicidal action against [%] VERPE (VERPE: Veronica persica) [%] | Herbicidal action against [%] LOLRI (LOLRI: Lolium rigidum) [%] | Herbicidal action against [%] AMARE [2] [%] | Herbicidal action against [%] STEME (STEME: Stellaria media) [%] | Herbicidal action against [%] HORMU (HORMU: Hordeum murinum) [%] | Herbicidal action against [%] POLCO [3] [%] | Herbicidal action against [%] ALOMY [4] [%]
1 | COC(=O)C1CCC(NC(=O)C2(C(F)(F)F)CC(c3cc(F)c(F)c(F)c3)=NO2)C1 (mixture of isomers) [Example I-171] | 80 | 90 | 80 | 100 | 80 | 80 | 80 | 80 | 100
2 | CCOC(=O)C1CCC(NC(=O)C2(C(F)(F)F)CC(c3cc(F)c(F)c(F)c3)=NO2)C1 (mixture of isomers) [Example I-185] | 80 | 100 | 80 | 90 | 80 | 80 | 90 | 90 | 90
3 | O=C(O)C1CCC(NC(=O)C2(C(F)(F)F)CC(c3cccc(F)c3)=NO2)C1 (mixture of isomers) [Example I-311] | 100 | 100 | 90 | 100 | 90 | 100 | 100 | 100 | 100
4 | COC(=O)C1CCC(NC(=O)C2(C(F)(F)F)CC(c3cccc(F)c3)=NO2)C1 (mixture of isomers) [Example I-325] | 90 | 100 | 80 | 100 | 80 | 90 | 90 | 80 | 90
5 | CCOC(=O)C1CCC(NC(=O)C2(C(F)(F)F)CC(c3cccc(F)c3)=NO2)C1 (mixture of isomers) [Example I-339] | 100 | 100 | 90 | 100 | 100 | 100 | 100 | 100 | 100
6 | O=C(OCCCl)C1CCC(NC(=O)C2(C(F)(F)F)CC(c3cccc(F)c3)=NO2)C1 (mixture of isomers) [Example I-409] | 100 | 100 | 90 | 100 | 90 | 100 | 100 | 100 | 100
7 | O=C(OCC(F)(F)F)C1CCC(NC(=O)C2(C(F)(F)F)CC(c3cccc(F)c3)=NO2)C1 (mixture of isomers) [Example I-423] | 100 | 100 | 90 | 100 | 90 | 100 | 100 | 90 | 100
8 | CCOC(=O)C1CCC(NC(=O)C2(C(F)(F)F)CC(c3cc(C)cc(F)c3)=NO2)C1 (mixture of isomers) [Example I-543] | 90 | 100 | 90 | 90 | 100 | 80 | 80 | 100 | 90
9 | COC(=O)C1CCC(NC(=O)C2(C(F)(F)F)CC(c3cc(C)cc(Cl)c3)=NO2)C1 (mixture of isomers) [Example I-802] | 80 | 100 | 90 | 90 | 90 | 90 | 80 | 100 | 90
